system: Vaccinia virus; assay: Antiviral activity against Vaccinia virus Lederle infected in HEL cells assessed as inhibition of viral-induced cytopathogenicity; format: functional, organism-based; conditions: Orthopoxvirus vaccinia

| SMILES | EC50 |
| --- | --- |
| C#C[C@]1(CO)S[C@@H](n2cnc3c(N)ncnc32)C[C@@H]1O | 52 µM |
| C#C[C@]1(CO)S[C@@H](n2ccc(N)nc2=O)C[C@@H]1O | 6.5 µM |
| C#C[C@]1(CO)S[C@@H](n2cnc3c(=O)[nH]c(N)nc32)C[C@@H]1O | 27 µM |
| Nc1nc2c(ncn2COC(CO)CO)c(=O)[nH]1 [GANCICLOVIR] | 100 µM |

Reference: ChEMBL document CHEMBL2010784 (ACS Med Chem Lett, 2011)
